Data on 15 compounds can be found in PubChem BioAssay (NCI).

Molecules are shown by their SMILES. Several values for one entry are separate records, joined by “and”; a condition that tells them apart may be missing. Equal values may be shown once.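 Step 1: Grow cells in 96-well plates. Step 2: Expose to compound for 48 hours at 5 concentrations. Step 3: Interpolate endpoints linearly; if unreached, use highest concentration. The concentration for 50% growth inhibition is given as GI50. Definition used: TGI = concentration required for complete inhibition of growth.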

Assay in all cases: NCI anticancer screen, dose series, 48 h
Assay [1] has as its system SF-539 CNS.
The test system of assay [2] is HCT-15 colon.
For assay [3], the system named is U251 CNS.
Assay [4] concerns SNB-19 CNS.
Assay [5] concerns A549 NSCLC.
Assay [6] has as its system SK-MEL-2 melanoma.
Assay [7] concerns SK-MEL-5 melanoma.
For assay [8], the system named is HT29 colon.
Assay [9] concerns SN12C renal.
Assay [10] concerns DU-145 prostate.

With `CC1/C=C/[C@@]2(C)CCC(C(C)(C)O)C2C(O)C[C@](C)(O)/C=C/C1` (stereo partly drawn), the TGI in assay [1], in assay [2], in assay [3], in [4], in assay [5] and in assay [6] was above 100 µM each time. Further, the TGI in assay [7], in assay [8] and in assay [9] was above 100 µM throughout.
`CCc1ccc(NC(=O)NC(=O)c2ccccc2[N+](=O)[O-])cc1Oc1ncc(Cl)cn1`: the TGI in assay [10] was above 100 µM; in assay [2] it was above 100 µM; in [3], above 100 µM; in assay [4], above 100 µM; in assay [5], above 100 µM; in assay [7], 0.0327 µM. Also, the TGI in assay [8] is 0.854 µM; in assay [9], above 100 µM.
Regarding `C/C=C(/I)CBr`, the TGI in assay [1] was determined as 32.5 µM; in assay [2], 51.2 µM; in assay [4], 63.5 µM; in [5], 66.7 µM; in [6], 28.4 µM; in assay [7], 29.4 µM. The TGI in assay [9] turned out to be 34.1 µM.
Consider `COc1ccc(C(=O)O[C@H]2[C@@H]3C=CO[C@@H](OC4OC(CO)C(O)C(O)C4O)[C@@H]3[C@@]3(CO)O[C@@H]23)cc1O` (stereo partly drawn), for which the TGI in [1], in [3], in assay [4], in assay [5], in assay [6] and in assay [7] was above 100 µM in each case. The TGI in assay [8] and in assay [9] was above 100 µM throughout.
Turning to `COc1ccc(NC(=O)CC2SC(=Nc3ccccc3C)NC2=O)c([N+](=O)[O-])c1` (stereo not drawn), the TGI in assay [1], in assay [2], in [3], in assay [4], in assay [5] and in assay [6] was above 100 µM throughout. Moreover, the TGI in assay [8] and in assay [9] was above 100 µM each time.
Regarding `CC(Oc1ccc2c(-c3ccccc3)cc(=O)oc2c1)C(=O)O` (stereo not drawn), the TGI in assay [1], in assay [3], in [4], in assay [5], in [7] and in assay [8] was above 100 µM throughout. The same compound showed a TGI in [9] above 100 µM.
As to `CC1=C[C@H]2c3c([nH]c4ccccc34)C(c3c[nH]c4ccccc34)[C@H]2CC1` (stereo partly drawn), the TGI in assay [1] is 25.6 µM; in assay [2] it was 18.8 µM; in assay [3] it was 16.3 µM; in [5] it was 26.4 µM; in assay [7], 28 µM; in [8] it was 11.5 µM. The TGI in assay [9] was 12.9 µM.
`NC1=C(NC(=O)Cc2ccccc2F)C(=O)c2ccccc2C1=O`: the TGI in assay [1] is 62 µM; in assay [2], above 100 µM; in [3] it was above 100 µM; in assay [4] it was above 100 µM; in assay [5], above 100 µM; in [6] it was above 100 µM. Further, the TGI in assay [8] and in assay [9] was above 100 µM each time.
For the compound `CCOC(=O)C(=O)Nc1ccccc1C`, the TGI in assay [1], in [2], in assay [3], in assay [4], in assay [5] and in assay [6] was above 100 µM throughout. The TGI in assay [7] and in assay [9] was above 100 µM in each case.
For `C#Cc1cccc(N2C(=O)c3c(c(-c4ccccc4)c(-c4ccc(Cc5ccc(-c6c(-c7ccccc7)c7c(c(-c8ccccc8)c6-c6ccccc6)C(=O)N(c6cccc(C#C)c6)C7=O)cc5)cc4)c(-c4ccccc4)c3-c3ccccc3)C2=O)c1`, the TGI in [1], in [2], in assay [3], in assay [4], in assay [5] and in assay [6] was above 100 µM in each case. Also, the figures for the TGI in assay [7], in [8] and in [9] were 62 µM, above 100 µM and above 100 µM, respectively.
Consider `CCOC(=O)C1=C(Nc2ccc(Cl)cc2Cl)OCC1=O`, for which the TGI in [1], in assay [2], in assay [3], in assay [4], in assay [5] and in assay [6] was above 100 µM throughout. Besides, the TGI in [8] and in [9] was above 100 µM throughout.
Turning to `CCC(=O)c1c(NOC2OCC(OC(C)=O)C(OC(C)=O)C2OC(C)=O)nc(OC)n(C)c1=O` (stereo not drawn), the TGI in assay [1], in assay [2], in assay [3], in assay [4], in [5] and in assay [7] was above 100 µM each time. In addition, the TGI in assay [8] and in [9] was above 100 µM each time.
`CCCNC(=O)C1C(=O)C(=O)N(CCC)C1=O` (stereo not drawn): the TGI in [1], in [2], in assay [3], in assay [4], in assay [5] and in assay [6] was above 100 µM throughout. Moreover, the TGI in assay [7], in [8] and in assay [9] was above 100 µM each time.
Turning to `COc1ccc(S(=O)(=O)N2CCN(C(=O)c3ccc(-c4ccccc4)cc3)CC2C(=O)NO)cc1` (stereo not drawn), the GI50 in assay [1] was 1.98 µM; in assay [5], 8.47 µM and 30.7 µM; in assay [8], 0.889 µM; in assay [9] it was 2.16 µM and 16.2 µM. The TGI in assay [1] was 4.22 µM; in assay [2], 12.5 µM and > 100 µM; in assay [3], 12.5 µM and > 100 µM; in assay [4], 12.5 µM and > 100 µM; in [5], 12.5 µM and 82.2 µM; in assay [8], 12.5 µM.
Regarding `COc1ccc(NC(=O)/C(=C/c2ccccc2)C(C)=O)cc1`, the TGI is 28.7 µM in assay [1]; 40.8 µM in [2]; 29.4 µM in assay [3]; 33.4 µM in assay [4]; 54.2 µM in assay [5]; 28.6 µM in [6]. The values for the TGI in assay [7], in [8] and in [9] were 28.2 µM, 28.5 µM and 31.4 µM, respectively.
